Test results published in patent US10526332B2, “Imidazo-pyrimidone compounds, and preparation method and application thereof” (Nanjing Gator Meditech Company, Ltd., priority 2015, dated 2020).

Assays:
[1] = system: HCT116; assay: MTS cell proliferation test, HCT116; conditions: Homo sapiens, HCT-116, 72 h, read-out: HCT116 IC50 (Mean ± SD);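 also: absorbance at 490 nm after MTS/PMS addition, survival relative to untreated cells (100%) after blank subtraction, IC50 from the concentration–survival curve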
Protocol: (§1) The disclosed compounds and their pharmaceutically accepted salts are assayed for their anti-cancer activities by the following method. • MTS Cell Proliferation Test 1. Materials 1.1. […] Cell Lines
(§2) Two cell lines were used, both HCT116 and MDA-MB-231 were purchased from USATCC.
(§3) MTS reagent powder was purchased from Promega. Cat #G1111; PMS from Sigma, Cat #P8625; cell culture medium RPMI-1640, Cat #10040562R; DMEM, Cat #0013CVR; 100× sodium pyruvate solution Cat #136007; 100× Penicillin Streptomycin Solution, Cat ⊇15140122; 100× Penicillin Streptomycin Solution, Cat #15140122; 0.25% Trypsin (Parenzyme), Cat #25200-072; and fetal bovine serum, Cat #16000-044 were all purchased from Life Technologies.
(§4) • Thermo incubator (Format 371); • Heat force Biosafety Cabinet (HF sage 1500); • BioTek Microplate Reader (Synergy 2). 2. […] 2.3 Procedure of MTS Methods:
(§5) Cells at logarithmic phase were harvested, then digested with 0.25% trypsin, and re-suspense in complete growth medium. 150 uL/well of HCT-116 and MDA-MB-231 were dispensed into 96 well culture plates with 2.5×10^3 cell/well. The plates were pre-incubated in a humidified CO2 incubator at 37° C., 5% CO2) for 24 hours. 50 uL of various concentration of test compounds and reference compound were added. A negative control (only cells and culture medium without compound) and blank control (only culture medium without cells) were set at the same time. The plates were incubated for 72 hr in the incubator. The MTS/PMS solution was prepared and added into 96 well plates according to the test instruction by Promega Corporation. The plates were incubated again for some time, then the absorbance at 490 nm were measured using Biotek Instruments, Inc microplate reader and the cell survival rates calculated. Cell Survival Rate(%)=(At−Ab)/(Ac−Ab)×100% where, • At=Absorbance value of test compound • Ab=Absorbance value of blank • Ac=Absorbance value of control 3. Results

[2] = system: MDA-MB-231; assay: MTS cell proliferation test, MDA-MB-231; conditions: Homo sapiens, MDA-MB-231, 72 h, read-out: MDA231 IC50 (Mean ± SD);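 also: cells settled 24 h before compound addition, MTS absorbance at 490 nm, survival as percent of untreated cells after blank subtraction, IC50 fitted from survival versus concentration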
Protocol: as §1, §2, §3, §4, §5

Compound	IC50 [1]	IC50 [2]
O=C1C2=C(CCN(Cc3ccccc3Cl)C2)N2CCN=C2N1Cc1ccccc1C(F)(F)F [Compound I-24, 7-(2-chlorobenzyl)-4-(2-(trifluoromethyl)benzyl)-1,2,6,7,8,9-hexahydroimidazo[1,2-a]pyrido[3,4-e]pyrimidin-5(4H)-one]	2090 ± 41 nM	1990 ± 39 nM
O=C1C2=C(CCN(Cc3ccccc3Cl)C2)N2CCN=C2N1Cc1ccccc1Cl [Compound I-25, 4,7-bis(2-chlorobenzyl)-1,2,6,7,8,9-hexahydroimidazo[1,2-a]pyrido[3,4-e]pyrimidin-5(4H)-one]	1950 ± 64 nM	1310 ± 154 nM
O=C1C2=C(CCN(Cc3ccccc3Cl)C2)N2CCN=C2N1Cc1ccccc1Br [Compound I-26, 4-(2-bromobenzyl)-7-(2-chlorobenzyl)-1,2,6,7,8,9-hexahydroimidazo[1,2-a]pyrido[3,4-e]pyrimidin-5(4H)-one]	1500 ± 394 nM	2080 ± 67 nM
Cc1ccccc1CN1C(=O)C2=C(CCN(Cc3ccccc3Cl)C2)N2CCN=C12 [Compound I-27, 7-(2-chlorobenzyl)-4-(2-methylbenzyl)-1,2,6,7,8,9-hexahydroimidazo[1,2-a]pyrido[3,4-e]pyrimidin-5(4H)-one]	2130 ± 45 nM	2260 ± 18 nM
O=C1C2=C(CCN(Cc3cccc(Br)c3)C2)N2CCN=C2N1Cc1ccccc1Cl [Compound I-28, 7-(3-bromobenzyl)-4-(2-chlorobenzyl)-1,2,6,7,8,9-hexahydroimidazo[1,2-a]pyrido[3,4-e]pyrimidin-5(4H)-one]	2200 ± 17 nM	2220 ± 29 nM
Cc1ccccc1CN1C(=O)C2=C(CCN(Cc3cccc(Br)c3)C2)N2CCN=C12 [Compound I-29, 7-(3-bromobenzyl)-4-(2-methylbenzyl)-1,2,6,7,8,9-hexahydroimidazo[1,2-a]pyrido[3,4-e]pyrimidin-5(4H)-one]	720 ± 1 nM	740 ± 2 nM
Cc1cccc(CN2CCC3=C(C2)C(=O)N(Cc2ccccc2F)C2=NCCN23)c1 [Compound I-30, 4-(2-fluorobenzyl)-7-(3-methylbenzyl)-1,2,6,7,8,9-hexahydroimidazo[1,2-a]pyrido[3,4-e]pyrimidin-5(4H)-one]	2070 ± 62 nM	2130 ± 5 nM
Cc1cccc(CN2CCC3=C(C2)C(=O)N(Cc2ccccc2C(F)(F)F)C2=NCCN23)c1 [Compound I-31, 7-(3-methylbenzyl)-4-(2-(trifluoromethyl)benzyl)-1,2,6,7,8,9-hexahydroimidazo[1,2-a]pyrido[3,4-e]pyrimidin-5(4H)-one]	1250 ± 122 nM	1650 ± 50 nM
Cc1cccc(CN2CCC3=C(C2)C(=O)N(Cc2ccccc2Cl)C2=NCCN23)c1 [Compound I-32, 4-(2-chlorobenzyl)-7-(3-methylbenzyl)-1,2,6,7,8,9-hexahydroimidazo[1,2-a]pyrido[3,4-e]pyrimidin-5(4H)-one]	770 ± 48 nM	740 ± 1 nM
Cc1cccc(CN2CCC3=C(C2)C(=O)N(Cc2ccccc2Br)C2=NCCN23)c1 [Compound I-33, 4-(2-bromobenzyl)-7-(3-methylbenzyl)-1,2,6,7,8,9-hexahydroimidazo[1,2-a]pyrido[3,4-e]pyrimidin-5(4H)-one]	720 ± 1 nM	860 ± 136 nM
Cc1cccc(CN2CCC3=C(C2)C(=O)N(Cc2ccccc2C)C2=NCCN23)c1 [Compound I-34, 4-(2-methylbenzyl)-7-(3-methylbenzyl)-1,2,6,7,8,9-hexahydroimidazo[1,2-a]pyrido[3,4-e]pyrimidin-5(4H)-one]	730 ± 1 nM	730 ± 2 nM
O=C1C2=C(CCN(Cc3cccc(Cl)c3)C2)N2CCN=C2N1Cc1ccccc1C(F)(F)F [Compound I-35, 7-(3-chlorobenzyl)-4-(2-(trifluoromethyl)benzyl)-1,2,6,7,8,9-hexahydroimidazo[1,2-a]pyrido[3,4-e]pyrimidin-5(4H)-one]	6210 ± 77 nM	4210 ± 634 nM
O=C1C2=C(CCN(Cc3cccc(Cl)c3)C2)N2CCN=C2N1Cc1ccccc1Cl [Compound I-36, 4-(2-chlorobenzyl)-7-(3-chlorobenzyl)-1,2,6,7,8,9-hexahydroimidazo[1,2-a]pyrido[3,4-e]pyrimidin-5(4H)-one]	720 nM	740 ± 1 nM
O=C1C2=C(CCN(Cc3cccc(Cl)c3)C2)N2CCN=C2N1Cc1ccccc1Br [Compound I-37, 4-(2-bromobenzyl)-7-(3-chlorobenzyl)-1,2,6,7,8,9-hexahydroimidazo[1,2-a]pyrido[3,4-e]pyrimidin-5(4H)-one]	2310 ± 33 nM	2330 ± 95 nM
O=C1C2=C(CCN(Cc3ccccc3)C2)N2CCN=C2N1Cc1cccc(C(F)(F)F)c1 [Compound I-38, 7-benzyl-4-(3-(trifluoromethyl)benzyl)-1,2,6,7,8,9-hexahydroimidazo[1,2-a]pyrido[3,4-e]pyrimidin-5(4H)-one]	240 ± 20 nM	400 ± 30 nM
O=C1C2=C(CCN(Cc3ccccc3)C2)N2CCN=C2N1Cc1ccc(C(F)(F)F)cc1 [Compound I-39, 7-benzyl-4-(4-(trifluoromethyl)benzyl)-1,2,6,7,8,9-hexahydroimidazo[1,2-a]pyrido[3,4-e]pyrimidin-5(4H)-one]	30 nM	50 nM
O=C1C2=C(CCN(Cc3ccccc3)C2)N2CCN=C2N1Cc1ccc(Cl)c(Cl)c1 [Compound I-40, 7-benzyl-4-(3,4-dichlorobenzyl)-1,2,6,7,8,9-hexahydroimidazo[1,2-a]pyrido[3,4-e]pyrimidin-5(4H)-one]	80 nM	120 ± 10 nM
O=C1C2=C(CCN(Cc3ccccc3)C2)N2CCN=C2N1Cc1ccc(Cl)cc1Cl [Compound I-41, 7-benzyl-4-(2,4-dichlorobenzyl)-1,2,6,7,8,9-hexahydroimidazo[1,2-a]pyrido[3,4-e]pyrimidin-5(4H)-one]	1730 ± 250 nM	2010 ± 10 nM
O=C1C2=C(CCN(Cc3ccccc3)C2)N2CCN=C2N1Cc1ccc(Cl)c(C(F)(F)F)c1 [Compound I-42, 7-benzyl-4-(4-chloro-3-(trifluoromethyl)benzyl)-1,2,6,7,8,9-hexahydroimidazo[1,2-a]pyrido[3,4-e]pyrimidin-5(4H)-one]	730 nM	1070 ± 10 nM
O=C1C2=C(CCN(Cc3ccccc3)C2)N2CCN=C2N1Cc1ccc(Cl)cc1C(F)(F)F [Compound I-43, 7-benzyl-4-(4-chloro-2-(trifluoromethyl)benzyl)-1,2,6,7,8,9-hexahydroimidazo[1,2-a]pyrido[3,4-e]pyrimidin-5(4H)-one]	4290 ± 210 nM	2850 ± 770 nM
O=C1C2=C(CCN(Cc3cccc(F)c3)C2)N2CCN=C2N1Cc1ccccc1F [Compound I-49, 4-(2-fluorobenzyl)-7-(3-fluorobenzyl)-1,2,6,7,8,9-hexahydroimidazo[1,2-a]pyrido[3,4-e]pyrimidin-5(4H)-one]	580 ± 43 nM	930 ± 98 nM
O=C1C2=C(CCN(Cc3cccc(F)c3)C2)N2CCN=C2N1Cc1ccccc1C(F)(F)F [Compound I-50, 7-(3-fluorobenzyl)-4-(2-(trifluoromethyl)benzyl)-1,2,6,7,8,9-hexahydroimidazo[1,2-a]pyrido[3,4-e]pyrimidin-5(4H)-one]	770 ± 14 nM	1770 ± 429 nM
O=C1C2=C(CCN(Cc3cccc(F)c3)C2)N2CCN=C2N1Cc1ccccc1Cl [Compound I-51, 4-(2-chlorobenzyl)-7-(3-fluorobenzyl)-1,2,6,7,8,9-hexahydroimidazo[1,2-a]pyrido[3,4-e]pyrimidin-5(4H)-one]	700 ± 1 nM	730 ± 4 nM
O=C1C2=C(CCN(Cc3cccc(F)c3)C2)N2CCN=C2N1Cc1ccccc1Br [Compound I-52, 4-(2-bromobenzyl)-7-(3-fluorobenzyl)-1,2,6,7,8,9-hexahydroimidazo[1,2-a]pyrido[3,4-e]pyrimidin-5(4H)-one]	1180 ± 155 nM	2070 ± 115 nM
O=C1C2=C(CCN(Cc3cccc(Br)c3)C2)N2CCN=C2N1Cc1ccccc1F [Compound I-53, 7-(3-bromobenzyl)-4-(2-fluorobenzyl)-1,2,6,7,8,9-hexahydroimidazo[1,2-a]pyrido[3,4-e]pyrimidin-5(4H)-one]	700 ± 1 nM	730 ± 2 nM
O=C1C2=C(CCN(Cc3cccc(Br)c3)C2)N2CCN=C2N1Cc1ccccc1C(F)(F)F [Compound I-54, 7-(3-bromobenzyl)-4-(2-(trifluoromethyl)benzyl)-1,2,6,7,8,9-hexahydroimidazo[1,2-a]pyrido[3,4-e]pyrimidin-5(4H)-one]	21410 ± 34 nM	24800 ± 2580 nM
O=C1C2=C(CN(Cc3ccccc3)C2)N2CCN=C2N1Cc1ccccc1Br [Compound I-55, 2-Benzyl-5-(2-bromobenzyl)-2,3,7,8-tetrahydro-1H-imidazo[1,2-a]pyrrolo[3,4-e]pyrimidin-4(5H)-one]	2140 ± 1 nM	2190 ± 39 nM
O=C1C2=C(CN(Cc3ccccc3)C2)N2CCN=C2N1Cc1ccc(Cl)cc1Cl [Compound I-56, 2-benzyl-5-(2,4-dichlorobenzyl)-2,3,7,8-tetrahydro-1H-imidazo[1,2-a]pyrrolo[3,4-e]pyrimidin-4(5H)-one]	2050 ± 30 nM	2050 ± 40 nM
O=C1C2=C(CN(Cc3ccccc3)C2)N2CCN=C2N1Cc1ccc(Cl)c(C(F)(F)F)c1 [Compound I-57, 2-benzyl-5-(4-chloro-3-(trifluoromethyl)benzyl)-2,3,7,8-tetrahydro-1H-imidazo[1,2-a]pyrrolo[3,4-e]pyrimidin-4(5H)-one]	2080 ± 10 nM	2100 ± 70 nM
Cc1ccccc1CN1C(=O)C2=C(CCN(Cc3ccccc3)C2)N2CCN=C12 [TIC10, 7-benzyl-4-(2-methylbenzyl)-1,2,6,7,8,9-hexahydroimidazo[1,2-a]pyrido[3,4-e]pyrimidin-5(4H)-one, reference compound]	1060 ± 240 nM	790 ± 80 nM
